Here are results for 18 compounds from PubChem BioAssay AID624167 (Sanford-Burnham Center for Chemical Genomics, 2012).

What all share (test): inhibition of PEG-3 promoter-driven reporter – cell-based, HeLa, luciferase, CREF/GAPDH counter-screen panel, dose response (AID 624167)
(In general: The purpose of a counterscreen is to sort out artefacts and off-target activity.)

Test [1] has as its system PEG-3. Conditions: HeLa PEG-Prom luciferase reporter, overnight, CREF/GAPDH counter-screens. (In general: A reporter such as luciferase makes a cellular process visible.)
For test [2], the target named is PEG-3 (UniProt Q6IN02). Conditions: HeLa PEG-Prom luciferase reporter, overnight, CREF/GAPDH counter-screens, mean of runs.
The test system of the next test is Rat fibroblasts (CREF). Conditions: CREF/GAPDH counter-screens.
[3] abbreviates: run 1, dose range 1, individual replicate IC50 per panel.
Where [4] appears, read: run 2, dose range 1, individual replicate IC50 per panel.

Activity calls are given as the source filed them.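 The calls were made as follows: active = mean IC50 for reducing PEG3 promoter reporter signal at or below a set limit, with IC50 above the limit in both counter screens; inactive = the rest, including counter screen hits.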 Some results are limits rather than exact numbers.

PEG-3 (UniProt Q6IN02), sequence (Q6IN02 whole entry, looked up): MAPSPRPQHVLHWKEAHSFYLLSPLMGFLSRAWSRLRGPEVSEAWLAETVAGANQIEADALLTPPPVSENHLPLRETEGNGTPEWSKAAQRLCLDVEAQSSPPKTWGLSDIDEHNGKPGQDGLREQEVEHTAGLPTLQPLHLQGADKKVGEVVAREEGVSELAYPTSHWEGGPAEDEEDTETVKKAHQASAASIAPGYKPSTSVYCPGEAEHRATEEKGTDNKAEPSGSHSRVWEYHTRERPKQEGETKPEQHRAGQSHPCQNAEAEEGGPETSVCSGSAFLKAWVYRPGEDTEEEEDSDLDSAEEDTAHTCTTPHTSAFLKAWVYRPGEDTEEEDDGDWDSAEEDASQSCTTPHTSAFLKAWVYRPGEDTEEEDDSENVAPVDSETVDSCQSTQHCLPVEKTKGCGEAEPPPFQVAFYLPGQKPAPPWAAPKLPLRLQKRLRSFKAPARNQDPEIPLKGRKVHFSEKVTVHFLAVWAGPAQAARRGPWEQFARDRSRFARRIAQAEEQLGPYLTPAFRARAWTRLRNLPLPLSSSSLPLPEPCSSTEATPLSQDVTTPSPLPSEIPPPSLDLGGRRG

In the case of `O=C(Nc1nc2ccccc2[nH]1)c1ccccc1F`, the IC50 in the test with PEG-3 [1] (setting [3]) was 1130 nM; with PEG-3 [1] (setting [4]) it was 1400 nM; at PEG-3 [2], 1260 nM; in the test with Rat fibroblasts (CREF) (mean of runs), 1470 nM; in the test on Rat fibroblasts (CREF) (setting [3]) it was 1260 nM; in the test on Rat fibroblasts (CREF) (setting [4]) it was 1680 nM.

With `CCCn1c(C)cc(C(=O)CN2C(=O)c3ccccc3S2(=O)=O)c1C`, the IC50 is 3240 nM in the test with PEG-3 [1] (setting [3]); 4830 nM in the test with PEG-3 [1] (setting [4]); 4030 nM on PEG-3 [2]; 6190 nM in the test on Rat fibroblasts (CREF) (mean of runs); 6320 nM with Rat fibroblasts (CREF) (setting [3]); 6060 nM in the test with Rat fibroblasts (CREF) (setting [4]).

Regarding `CCOc1ccc(OCc2cccc(C(=O)O)c2)cc1`, the IC50 was 232 nM with PEG-3 [1] (setting [3]); 487 nM in the test on PEG-3 [1] (setting [4]); 359 nM on PEG-3 [2]; 3740 nM with Rat fibroblasts (CREF) (mean of runs); 3880 nM in the test on Rat fibroblasts (CREF) (setting [3]); 3600 nM with Rat fibroblasts (CREF) (setting [4]).

Regarding `C(=NN1CCCCCC1)c1ccc2ccccc2n1`, the IC50 is 3590 nM with PEG-3 [1] (setting [3]); more than 100000 nM in the test with PEG-3 [1] (setting [4]); 2580 nM in the test on Rat fibroblasts (CREF) (mean of runs); 2120 nM in the test with Rat fibroblasts (CREF) (setting [3]); 3040 nM in the test with Rat fibroblasts (CREF) (setting [4]). Moreover, the IC50 result on PEG-3 [2] is “inactive”.

In the case of `Cc1ccc2nc(-c3ccc(Br)cc3)cn2c1`, the 50% inhibitory concentration (IC50) with PEG-3 [1] (setting [3]) was 3130 nM; in the test with PEG-3 [1] (setting [4]), 9070 nM; at PEG-3 [2], 6100 nM; in the test on Rat fibroblasts (CREF) (mean of runs), 7810 nM; in the test on Rat fibroblasts (CREF) (setting [3]) it was 2920 nM; in the test with Rat fibroblasts (CREF) (setting [4]), 12700 nM.

For `O=C1c2cccc3cc([N+](=O)[O-])cc(c23)C(=O)N1CCN1CCCC1`, the concentration for half-maximal inhibition (IC50) in the test on PEG-3 [1] (setting [3]) was 6200 nM; in the test with PEG-3 [1] (setting [4]) it was 4940 nM; on PEG-3 [2] it was 5570 nM; in the test with Rat fibroblasts (CREF) (mean of runs), 4660 nM; in the test with Rat fibroblasts (CREF) (setting [3]), 4170 nM; in the test on Rat fibroblasts (CREF) (setting [4]), 5150 nM.

On to `Cc1ccc2nc(-c3ccccc3)cn2c1`, for which the IC50 in the test with PEG-3 [1] (setting [3]) was 1020 nM; in the test with PEG-3 [1] (setting [4]), 1010 nM; at PEG-3 [2] it was 1010 nM; with Rat fibroblasts (CREF) (mean of runs), 783 nM; in the test on Rat fibroblasts (CREF) (setting [3]) it was 619 nM; in the test on Rat fibroblasts (CREF) (setting [4]), 948 nM.

`C/C(=N/NC(=O)c1cc(C2CC2)[nH]n1)c1cccs1`: the IC50 in the test on PEG-3 [1] (setting [3]) is 5930 nM; in the test with PEG-3 [1] (setting [4]) it was 7690 nM; on PEG-3 [2] it was 6810 nM; in the test on Rat fibroblasts (CREF) (mean of runs), 3840 nM; with Rat fibroblasts (CREF) (setting [3]), 3850 nM; in the test on Rat fibroblasts (CREF) (setting [4]), 3830 nM.

Turning to `Cc1cc(C2=NNC(=NC3CC3)SC2)c(C)n1-c1ccccc1F`, the IC50 in the test with PEG-3 [1] (setting [3]) was less than 200 nM; in the test with PEG-3 [1] (setting [4]), less than 200 nM; on PEG-3 [2], less than 200 nM; with Rat fibroblasts (CREF) (mean of runs), 3300 nM; in the test with Rat fibroblasts (CREF) (setting [3]), 2720 nM; with Rat fibroblasts (CREF) (setting [4]) it was 3890 nM.

Regarding `O=C(O)c1cccc(COc2ccccc2Cl)c1`, the IC50 was 679 nM in the test with PEG-3 [1] (setting [3]); 2970 nM in the test with PEG-3 [1] (setting [4]); 1830 nM at PEG-3 [2]; 20200 nM in the test on Rat fibroblasts (CREF) (mean of runs); 38800 nM in the test on Rat fibroblasts (CREF) (setting [3]); 1550 nM with Rat fibroblasts (CREF) (setting [4]).

Take `COc1ccc(-c2cc3nc(C)n(N)c(=O)c3s2)cc1`: the IC50 is 657 nM in the test on PEG-3 [1] (setting [3]); 288 nM in the test with PEG-3 [1] (setting [4]); 473 nM at PEG-3 [2]; 1090 nM in the test on Rat fibroblasts (CREF) (mean of runs); 1010 nM in the test with Rat fibroblasts (CREF) (setting [3]); 1160 nM with Rat fibroblasts (CREF) (setting [4]).

As for `COc1ccc(/C=N/Nc2nncc3ccccc23)cc1`, the half-maximal inhibitory concentration (IC50) in the test on PEG-3 [1] (setting [3]) was 4620 nM; in the test with PEG-3 [1] (setting [4]) it was 8430 nM; on PEG-3 [2], 6520 nM; with Rat fibroblasts (CREF) (mean of runs) it was 835 nM; with Rat fibroblasts (CREF) (setting [3]), 957 nM; in the test with Rat fibroblasts (CREF) (setting [4]), 712 nM.

As to `CCOC(=O)c1cnc(Nc2nc3ccccc3o2)nc1C`, the half-inhibitory concentration (IC50) with PEG-3 [1] (setting [3]) is 1170 nM; in the test with PEG-3 [1] (setting [4]), 2320 nM; on PEG-3 [2] it was 1750 nM; with Rat fibroblasts (CREF) (mean of runs) it was 1320 nM; in the test with Rat fibroblasts (CREF) (setting [3]) it was 1270 nM; in the test with Rat fibroblasts (CREF) (setting [4]), 1370 nM.

As to `CCC1(OC(=O)CN)C(=O)OCc2c1cc1n(c2=O)Cc2cc3ccccc3nc2-1` (stereo not drawn), the IC50 in the test with PEG-3 [1] (setting [3]) is 3800 nM; with PEG-3 [1] (setting [4]) it was 2880 nM; at PEG-3 [2], 3340 nM; in the test on Rat fibroblasts (CREF) (mean of runs), 1380 nM; with Rat fibroblasts (CREF) (setting [3]) it was 1070 nM; with Rat fibroblasts (CREF) (setting [4]), 1690 nM.

Consider `CCOc1ccc(NC(=O)Nc2cccc(C(=O)O)c2)cc1`, for which the half-maximal inhibitory concentration (IC50) is 2900 nM in the test with PEG-3 [1] (setting [3]); 3580 nM in the test on PEG-3 [1] (setting [4]); 3240 nM at PEG-3 [2]; 4090 nM with Rat fibroblasts (CREF) (mean of runs); 3070 nM in the test on Rat fibroblasts (CREF) (setting [3]); 5100 nM in the test with Rat fibroblasts (CREF) (setting [4]).

Consider `O=C(O)c1cccc(COc2ccc3c(c2)CCC3)c1`, for which the IC50 was 823 nM in the test with PEG-3 [1] (setting [3]); 1880 nM in the test with PEG-3 [1] (setting [4]); 1350 nM at PEG-3 [2]; 10300 nM with Rat fibroblasts (CREF) (mean of runs); 10700 nM in the test with Rat fibroblasts (CREF) (setting [3]); 9920 nM with Rat fibroblasts (CREF) (setting [4]).

As to `Cc1ccc(-c2nc(-c3ccccn3)no2)cc1Cl`, the IC50 in the test on PEG-3 [1] (setting [3]) was 1190 nM; with PEG-3 [1] (setting [4]) it was 2090 nM; on PEG-3 [2] it was 1640 nM; in the test on Rat fibroblasts (CREF) (mean of runs) it was 1310 nM; in the test with Rat fibroblasts (CREF) (setting [3]), 1220 nM; in the test on Rat fibroblasts (CREF) (setting [4]), 1400 nM.

`Cc1csc(NC(=O)c2cn3ccccc3n2)n1`: the IC50 with PEG-3 [1] (setting [3]) was 2680 nM; with PEG-3 [1] (setting [4]) it was 5620 nM; on PEG-3 [2], 4150 nM; in the test with Rat fibroblasts (CREF) (mean of runs), 1090 nM; with Rat fibroblasts (CREF) (setting [3]) it was 1110 nM; in the test on Rat fibroblasts (CREF) (setting [4]) it was 1070 nM.

As usually defined, the IC50 is the concentration needed to halve the response being measured.
